How the values were obtained:
[1] = system: Alopecurus myosuroides (ALOMY); test: Glasshouse herbicide test, pre- and post-emergence, percentage damage; assay type: in vivo; settings: 250 g/h, evaluated after 13 days, percentage damage on five point scale; for ALOMY POST: post-emergence; for ALOMY PRE: pre-emergence
Method in brief: (§1)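 Glasshouse, 24/16 °C, 14 h photoperiod, 65% humidity. Sprayed at 250 g/h pre- (1 d) or post-emergence (8 d); evaluated 13 d after spraying, 5-point damage scale.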

Avena fatua (AVEFA) = test: as above; assay type: in vivo; settings: 250 g/h, evaluated after 13 days, percentage damage on five point scale; for AVEFA POST: post-emergence; for AVEFA PRE: pre-emergence
Method in brief: as §1

[2] = system: Echinochloa crus-galli (ECHCG); test: as above; assay type: in vivo; settings: 250 g/h, evaluated after 13 days, percentage damage on five point scale; for ECHCG POST: post-emergence; for ECHCG PRE: pre-emergence
Method in brief: as §1

Lolium perenne (LOLPE) = test: as above; assay type: in vivo; settings: 250 g/h, evaluated after 13 days, percentage damage on five point scale; for LOLPE POST: post-emergence; for LOLPE PRE: pre-emergence
Method in brief: as §1

Setaria faberi (SETFA) = test: as above; assay type: in vivo; settings: 250 g/h, evaluated after 13 days, percentage damage on five point scale; for SETFA POST: post-emergence; for SETFA PRE: pre-emergence
Method in brief: as §1

ALOMY = test: Post-emergence comparison with comparator C1 at indicated application rates; assay type: in vivo, Alopecurus myosuroides
Method: (§2) Seeds of a variety of test species are sown in standard soil in pots (Lolium perenne (LOLPE), Setaria faberi (SETFA), Alopecurus myosuroides (ALOMY), Echinochloa crus-galli (ECHCG), Avena fatua (AVEFA)). After cultivation for one day (pre-emergence) or after 8 days cultivation (post-emergence) under controlled conditions in a glasshouse (at 24/16° C., day/night; 14 hours light; 65% humidity), the plants are sprayed with an aqueous spray solution derived from the formulation of the technical active ingredient in acetone/water (50:50) solution containing 0.5% Tween 20 (polyoxyethelyene sorbitan monolaurate, CAS RN 9005-64-5). Compounds are applied at […]. The test plants are then grown in a glasshouse under controlled conditions in a glasshouse (at 24/16° C., day/night; 14 hours light; 65% humidity) and watered twice daily. After 13 days for pre and post-emergence, the test is evaluated for the percentage damage caused to the plant. The biological activities are shown in the following table on a five point scale (5=80-100%; 4=60-79%; 3=40-59%; 2=20-39%; 1=0-19%).
(§3) Using procedures outlines above, weed species ALOMY, AVEFA & LOLPE are treated post-emergence with compound A4 of the present invention or comparator compound C1 (Compound T-26 from WO2008/110308) at the application rates indicated. The test is evaluated for the percentage damage caused to the plant.

AVEFA = test: as above; assay type: in vivo, Avena fatua
Method: as §2, §3

LOLPE = test: as above; assay type: in vivo, Lolium perenne
Method: as §2, §3

[3] = system: weed species ALOMY, AVEFA & LOLPE; test: Post-emergence comparison with comparator C1, overall conclusion; assay type: in vivo; settings: 63 and 16 g/ha, Table B2
Method: as §2, §3

Row | SMILES | ALOMY POST [1] | ALOMY PRE [1] | AVEFA POST (Avena fatua (AVEFA)) | AVEFA PRE (Avena fatua (AVEFA)) | ECHCG POST [2] | ECHCG PRE [2] | LOLPE POST (Lolium perenne (LOLPE)) | LOLPE PRE (Lolium perenne (LOLPE)) | SETFA POST (Setaria faberi (SETFA)) | SETFA PRE (Setaria faberi (SETFA)) | ALOMY percentage damage (ALOMY; rate 16 g/ha) [%] | ALOMY percentage damage (ALOMY; rate 63 g/ha) [%] | AVEFA percentage damage (AVEFA; rate 16 g/ha) [%] | AVEFA percentage damage (AVEFA; rate 63 g/ha) [%] | LOLPE percentage damage (LOLPE; rate 16 g/ha) [%] | LOLPE percentage damage (LOLPE; rate 63 g/ha) [%] | weed control vis-à-vis prior art compound C1 [3]
1 | CON1CCC2(CC1)CC(=O)C(c1c(C)cc(C)cc1C)C(=O)C2 [Compound A4] | 5 (5=80-100%) | 5 (5=80-100%) | 5 (5=80-100%) | 5 (5=80-100%) | 5 (5=80-100%) | 5 (5=80-100%) | 5 (5=80-100%) | 5 (5=80-100%) | 5 (5=80-100%) | 5 (5=80-100%) | 40 | 90 | 40 | 90 | 70 | 90 | improved weed control
2 | COc1cc(-c2ccc(F)cc2)cc(OC)c1C1C(=O)CC2(CCN(OC)CC2)CC1=O [Compound A7] | 5 (5=80-100%) | 5 (5=80-100%) | 5 (5=80-100%) | 5 (5=80-100%) | 5 (5=80-100%) | 5 (5=80-100%) | 5 (5=80-100%) | 5 (5=80-100%) | 5 (5=80-100%) | 5 (5=80-100%) | 80 | 100 | 100 | 100 | 90 | 100 | improved weed control
3 | CC(=O)N1CCC2(CC1)CC(=O)C(c1c(C)cc(-c3ncc(F)cn3)cc1C)C(=O)C2 [Compound A13, 3-acetyl-9-[4-(5-fluoropyrimidin-2-yl)-2,6-dimethyl-phenyl]-3-azaspiro[5.5]undecane-8,10-dione] | 5 (5=80-100%) | 5 (5=80-100%) | 5 (5=80-100%) | 5 (5=80-100%) | – | 5 (5=80-100%) | 5 (5=80-100%) | 5 (5=80-100%) | 5 (5=80-100%) | 5 (5=80-100%) | 90 | 100 | 90 | 100 | 70 | 90 | improved weed control
4 | Cc1cc(-c2ccc(F)cc2)cc(C)c1C1C(=O)CC2(CCN(C(=O)CC#N)CC2)CC1=O [Compound A63] | – | 5 (5=80-100%) | 5 (5=80-100%) | 5 (5=80-100%) | 4 (4=60-79%) | 5 (5=80-100%) | 5 (5=80-100%) | 5 (5=80-100%) | 5 (5=80-100%) | 5 (5=80-100%) | – | – | – | – | – | – | –
5 | COc1cc(-c2ccc(F)cc2)cc(C)c1C1C(=O)CC2(CCN(C(=O)NC(=O)c3ccccn3)CC2)CC1=O [Compound A73] | – | 5 (5=80-100%) | 5 (5=80-100%) | 1 (1=0-19%) | 5 (5=80-100%) | 4 (4=60-79%) | 5 (5=80-100%) | 1 (1=0-19%) | 5 (5=80-100%) | 5 (5=80-100%) | – | – | – | – | – | – | –
6 | COc1cc(-c2ccc(F)cc2)cc(C)c1C1C(=O)CC2(CCN(C(=O)C(C)O)CC2)CC1=O (stereo not shown) [Compound A75] | 5 (5=80-100%) | 5 (5=80-100%) | 5 (5=80-100%) | 5 (5=80-100%) | 5 (5=80-100%) | 5 (5=80-100%) | 5 (5=80-100%) | 5 (5=80-100%) | 5 (5=80-100%) | 5 (5=80-100%) | – | – | – | – | – | – | –
7 | Cc1cc(C)c(C2C(=O)CC3(CCOCC3)CC2=O)c(C)c1 [Compound C1, reference compound] | – | – | – | – | – | – | – | – | – | – | 20 | 80 | 20 | 70 | 30 | 60 | –
8 | CC(=O)OC1=C(c2c(C)cc(-c3ccc(F)cc3)cc2C)C(=O)CC2(CCN(C(C)=O)CC2)C1 [Compound P1] | 5 (5=80-100%) | 5 (5=80-100%) | 5 (5=80-100%) | 5 (5=80-100%) | 5 (5=80-100%) | 5 (5=80-100%) | 5 (5=80-100%) | 5 (5=80-100%) | 5 (5=80-100%) | 5 (5=80-100%) | – | – | – | – | – | – | –
